Data: US20210395309A1, “PEPTIDE-DRUG CONJUGATES” (Hong Kong Baptist University, priority 2020, published 2021)
“Also recorded” adds a separate entry of the source. Like-named read-outs stand apart in the source and are kept apart here. Where a SMILES comes first, the peptide text is derived from it. The star is where a group is joined. Paclitaxel(2'-O-succinyl) = CC(=O)O[C@H]1C(=O)[C@@]2(C)[C@H]([C@H](OC(=O)c3ccccc3)[C@]3(O)C[C@H](OC(=O)[C@H](OC(=O)CCC(=O)*)[C@@H](NC(=O)c4ccccc4)c4ccccc4)C(C)=C1C3(C)C)[C@]1(OC(C)=O)CO[C@@H]1C[C@@H]2O

Experiments:
[1] = system: HEK293T (ACE-negative) cells; assay: MTT cytotoxicity assay in ACE-negative HEK293T; assay type: cell-based, human; conditions: 48 h, mean (95% CI)
Method: (§1) MTT assays were performed to study the in vitro antitumor effects of BPP-PTX conjugate as well as free PTX and BPP in various ACE-negative and ACE-positive cell lines. Briefly, the cells (5,000 per well) were seeded in 96-well plates 24 h before treatment. The different drug formulations at concentrations of 0.01-1000 nM PTX or 0.01-1000 nM BPP-PTX and free BPP were added. The cells were cultured for another 48 h. 20 μL of 3-(4,5-dimethylthiazol-2-yl)-2,5-diphenyltetrazolium bromide (MTT) solution (5 mg/mL) was added. The cells were further cultured for 4 h, the medium was removed, and 150 μL DMSO was added to dissolve the MTT-formazan crystals. The optical density (O.D.) values for the untreated group were set as 100% viability. Independent experiments were performed in triplicate.
(§2) Each experiment was performed at least three times. GraphPad Prism 6.0 software was used for IC50 calculations and statistical analyses, including student t-test and two-way ANOVA.

[2] = system: MDA-MB-231 (ACE-positive) cells; assay: MTT cytotoxicity assay in ACE-positive TNBC MDA-MB-231; assay type: cell-based, human; conditions: 48 h, mean (95% CI)
Method: as §1, §2

[3] = system: MDA-MB-468 (ACE-positive) cells; assay: MTT cytotoxicity assay in ACE-positive TNBC MDA-MB-468; assay type: cell-based, human; conditions: 48 h, mean (95% CI)
Method: as §1, §2

[4] = for body weight decrease compared with control mice: day 28
Method: Mice were kept at room temperature 25° C. with an alternating 12 h light-dark cycle and were allowed access to food and water. […] MDA-MB-468 cells (5×10^6 cells per mouse) were suspended in PBS and inoculated subcutaneously into the fourth mammary fat pad of athymic nude mice. Tumor growth was monitored every four days by measuring two perpendicular diameters with calipers. […] The tumors were measured with calipers every day, and tumor volumes were calculated using the following formula: a^2×b×0.4, where “a” is the smallest diameter and “b” is the diameter perpendicular to “a”. At the end of the experiment, the mice were sacrificed, and the tumor weights of each animal were analyzed. Blood samples (˜100 μL) were taken from the retro-orbital plexus in heparinized capillary tubes (Modulohm A/S, Herlev, Denmark). Total white blood cell counts were determined manually for each sample using a Neubauer chamber (GMBH, Wertheim, Germany).

HEK293T-ACE cells = assay: Cytotoxicity in ACE-overexpressed HEK293T-ACE versus control HEK293T; assay type: cell-based, human; conditions: 1-, 10-, and 100 nM; ACE plasmid vs empty plasmid
Method: (§3) ACE siRNA (h2) (sc-270350) and Control siRNA-A (sc-37007) were purchased from Santa Cruz Biotechnology, Inc. The ACE expression plasmid was bought from Gen Script (Nanjing) Co., Ltd. Transfections were carried out using Lipofectamine 2000 (Invitrogen) according to the manufacturer's instructions.
as §1
(§4) Next, it was determined whether the cytotoxicity of BPP-PTX was mediated by ACE or not. First, the ACE protein was artificially overexpressed in HEK293T cell lines by transfecting ACE-containing plasmid, and the empty plasmid was transfected as a control. […]

MDA-MB-231-siACE cells = assay: Cytotoxicity in ACE-knockdown MDA-MB-231-siACE versus MDA-MB-231-siCtr; assay type: cell-based, human; conditions: 10- and 100 nM
Method: as §3, §1, §4

MDA-MB-468-siACE cells = assay: Cytotoxicity in ACE-knockdown MDA-MB-468-siACE versus MDA-MB-468-siCtr; assay type: cell-based, human; conditions: 10- and 100 nM
Method: as §3, §1, §4

MDA-MB-231 cells = assay: Annexin V-FITC/PI apoptosis assay, flow cytometry; assay type: cell-based, human; conditions: 10 nM, 48 h
Method: (§5) 1×10^5 MDA-MB-231 or 1.5×10^5 MDA-MB-468 cells per well were cultured in 6-well plates. After attachment, cells were treated with DMSO or 10 nM PTX or BPP-PTX for 48 h and stained with Annexin V (AV) conjugated with FITC and propidium iodide (PI) using the Annexin V-FITC Apoptosis Assay Kit following the manufacturer's instructions. Stained cells were analyzed with the Cyflow Cube flow cytometer (PARTEC, Germany). Data were analyzed using FlowJo 7.6.5 software.

MDA-MB-468 cells [5] = assay: Annexin V-FITC/PI apoptosis assay, flow cytometry; assay type: cell-based, human; conditions: 10 nM, 48 h
Method: as §5

[6] = system: MDA-MB-231 and MDA-MB-468 cells; assay: DAPI staining of nuclei for apoptosis; assay type: cell-based, human; conditions: 10 nM
Method: The occurrence of apoptosis was evaluated by DAPI staining. Cells (4.0×10^5 cells/well) were seeded and incubated with 10 nM PTX or BPP-PTX for 24 h. Following treatment, the cells were washed with phosphate-buffered saline (PBS) and fixed with 4% paraformaldehyde (Sigma-Aldrich) for 15 min at room temperature 25° C., and then stained in the dark with a DAPI solution for 10 min at room temperature 25° C. Thereafter, the cells were washed with PBS and photographed under an inverted fluorescence microscope (Olympus IX71; Olympus, Tokyo, Japan).

MDA-MB-468 cells [7] = assay: TNBC orthotopic mouse model, tumor growth; assay type: in vivo
Method: To test the in vivo efficacy and toxicity of BPP-PTX, an orthotopic mouse model was established. ACE-positive MDA-MB-468 cells were injected orthotopically in the mammary fat pads of the female athymic nude mouse. Once mice attained palpable tumors, they were randomly divided into four groups and treated for 28 days with PBS, free PTX (2.4 μmol/kg), low dose BPP-PTX (2.4 μmol/kg), and high-dose BPP-PTX (9.6 μmol/kg), every 4 days by intraperitoneal injection (i.p.). Tumor growth was monitored by measuring tumor volume every 4 days with a caliper rule. On day 4, after the first injection, the effect of the drugs was not yet detectable since average tumor volumes, as measured with the caliper, were similar in the four groups of mice. […] On day 28, the average tumor volume of mice treated with low-dose BPP-PTX had decreased by about 15% compared to animals treated with free PTX, and by 54% compared to control animals (PBS). Meanwhile, the average tumor volume of mice treated with high-dose BPP-PTX, had decreased by about 30% compared to animals treated with free PTX, and by 62% compared to control animals (FIGS. 5A and 5B). Consistently, the average tumor weight of mice treated with low-dose BPP-PTX was 0.20 g (0.17, 0.24) lower than that of mice treated with free PTX (0.26 g (0.21, 0.31)) and control mice (0.43 g (0.37, 0.49)).

Structure (SMILES) | IC50 [1] [nM] | IC50 [2] [nM] | IC50 [3] [nM] | WBC count decrease after the 28-day treatment compared to before treatment ([4]; 2.4 μmol/kg i.p. every 4 days) | WBC count decrease after the 28-day treatment compared to before treatment ([4]; 9.6 μmol/kg i.p. every 4 days) [%] | body weight loss compared with control mice ([4]; day 0 to day 24, low dose 2.4 μmol/kg) | body weight decrease compared with control mice ([4]; 2.4 μmol/kg i.p. every 4 days) | body weight decrease compared with control mice ([4]; 9.6 μmol/kg i.p. every 4 days) [%] | IC50 ([1]; Homo sapiens, HEK-293T) [nM] | IC50 ([2]; Homo sapiens) [nM] | IC50 ([3]; Homo sapiens) [nM] | cell variability in HEK293T-ACE compared with HEK293T (HEK293T-ACE cells) | cell variability in siACE cells compared with siCtr cells (MDA-MB-231-siACE cells) | cell variability in siACE cells compared with siCtr cells (MDA-MB-468-siACE cells) | apoptosis (MDA-MB-231 cells) | apoptosis (MDA-MB-468 cells [5]) | nuclei morphology (DAPI) [6] | average tumor weight (MDA-MB-468 cells [7]; end of 28-day treatment, 2.4 μmol/kg i.p. every 4 days) [g] | tumor growth compared with control mice (MDA-MB-468 cells [7]; i.p. every 4 days, 28 days, PTX 2.4 μmol/kg, BPP-PTX 2.4 and 9.6 μmol/kg)
CC[C@H](C)[C@H](NC(=O)[C@H](CCC(N)=O)NC(=O)[C@@H]1CCCN1C(=O)[C@H](CCCNC(=N)N)NC(=O)[C@@H]1CCCN1C(=O)[C@H](Cc1c[nH]c2ccccc12)NC(=O)[C@H](CCC(=O)O)NC(=O)CCC(=O)O[C@@H](C(=O)O[C@H]1C[C@@]2(O)[C@@H](OC(=O)c3ccccc3)[C@@H]3[C@]4(OC(C)=O)CO[C@@H]4C[C@H](O)[C@@]3(C)C(=O)[C@H](OC(C)=O)C(=C1C)C2(C)C)[C@@H](NC(=O)c1ccccc1)c1ccccc1)C(=O)N1CCC[C@H]1C(=O)N1CCC[C@H]1C(N)=O [BPP-PTX] ({Paclitaxel(2'-O-succinyl)}-EWPRPQIPP-NH2) | 616 | 9.5 | 12.3 | about 17% | ~22 | no body weight loss | ~2.8% | ~6.4 |  |  |  |  |  |  |  |  |  |  | 
CC(=O)O[C@H]1C(=O)[C@@]2(C)[C@H]([C@H](OC(=O)c3ccccc3)[C@]3(O)C[C@H](OC(=O)[C@H](O)[C@@H](NC(=O)c4ccccc4)c4ccccc4)C(C)=C1C3(C)C)[C@]1(OC(C)=O)CO[C@@H]1C[C@@H]2O [PTX, Paclitaxel] |  |  |  | about 52% |  |  | about 6.2% |  | 6.7 | 3.1 | 3 | No differences | no difference | no difference | induced apoptosis | induced apoptosis | condensed and fragmented | 0.26 | significantly lower; also recorded: clear reduction
